Results taken from US9320760B2, “Compositions and methods of use of compounds to increase cancer patient survival time” (BioNumerik Pharmaceuticals, Inc., priority 2008, dated 2016).

Columns and labels:
[1] = target: T1, GR + GSH (Homo sapiens, UniProt P00390); test: NADPH oxidation, GR + GSH; type: biochemical; conditions: Disulfide 0.5 mM; n = 6
T1 sequence (P00390 44-522): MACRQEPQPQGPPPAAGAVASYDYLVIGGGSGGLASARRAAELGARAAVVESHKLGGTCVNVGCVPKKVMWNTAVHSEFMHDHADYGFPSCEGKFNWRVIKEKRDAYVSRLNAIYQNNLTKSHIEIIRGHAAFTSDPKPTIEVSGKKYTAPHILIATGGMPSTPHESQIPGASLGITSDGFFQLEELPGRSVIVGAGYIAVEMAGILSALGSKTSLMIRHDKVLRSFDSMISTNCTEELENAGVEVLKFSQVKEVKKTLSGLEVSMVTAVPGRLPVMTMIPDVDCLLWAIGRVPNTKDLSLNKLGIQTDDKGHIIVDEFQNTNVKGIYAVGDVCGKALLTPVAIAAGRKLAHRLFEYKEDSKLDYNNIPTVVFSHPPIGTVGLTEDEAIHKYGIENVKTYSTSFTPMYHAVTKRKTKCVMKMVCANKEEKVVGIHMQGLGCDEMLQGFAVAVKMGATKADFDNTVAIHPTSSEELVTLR
Procedure: (§1) The Formula (I) compound was utilized at a concentration of 0.5 mM.

[2] = target: T2, GR + GRX + GSH (coupled glutaredoxin/glutathione/glutathione reductase system) (Homo sapiens, UniProt P35754); test: NADPH oxidation, coupled GRX/GSH/GR system; type: biochemical
T2 sequence (P35754 1-106): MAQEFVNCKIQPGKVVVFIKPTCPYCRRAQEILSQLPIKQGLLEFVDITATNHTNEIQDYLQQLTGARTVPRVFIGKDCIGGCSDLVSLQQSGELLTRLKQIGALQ
Procedure: as §1

[3] = system: whole cells; test: whole cell mediated disulfide reduction (α-lipoic acid, hydroxyethyldisulfide); type: cell-based; conditions: treatments with paclitaxel, cisplatin and Tavocept
[4] = system: human breast, ovarian and lymphoma cancer cell lines; test: interference with paclitaxel induced apoptosis (PARP cleavage, Bcl-2 phosphorylation, DNA laddering); type: cell-based; conditions: in vitro
Excerpt: (§2) An important element of Tavocept's™ effectiveness as a compound in the treatment of cancer is its selectivity for normal cells versus cancer cells and its inability to interfere with the anti-cancer activity of chemotherapeutic agents.

[5] = system: human cancer cell lines; test: interference with paclitaxel and platinum induced cytotoxicity; type: cell-based
Excerpt: as §2

[6] = interference with paclitaxel and platinum regimens in animal models; type: in vivo
Excerpt: as §2

[7] = system: non-small cell lung carcinoma (NSCLC) cell lines; test: cytotoxicity study in combination with chemotherapeutic agents, NSCLC cell lines; type: cell-based, human; conditions: Tavocept in combination with cisplatin vs cisplatin only controls
[8] = system: breast cancer cell lines; test: cytotoxicity study in combination with cisplatin, breast cancer cell lines; type: cell-based, human; conditions: Tavocept in combination with cisplatin vs cisplatin only controls
[9] = system: patients with advanced non-small cell lung carcinoma (NSCLC), including the adenocarcinoma sub-type; test: Japan Phase III Clinical Trial (paclitaxel + cisplatin with Tavocept or placebo); type: in vivo, human
Procedure: Patients admitted into the trial included those patients without previous treatment (excluding surgical treatment, administration of Picibanil into the serous membrane, irradiation of 30% or less hematopoietic bone, or oral chemotherapeutic agents within 3 months of entry in the trial).
The Japan Phase III Clinical Trial was conducted as a double-blind study because peripheral neuropathy is diagnosed based on subjective symptoms evaluated through clinical interviews, lab tests, and the like. Accordingly, evaluations by both physicians and patients are highly important. […] A placebo was used as control since there is no established therapy or drug for preventing peripheral neuropathy. Because the severity of peripheral neuropathy is evaluated based on patient's reports (i.e., subjective symptoms), the Peripheral Neuropathy Questionnaire (PNQ©) was used in primary evaluation. CIPN-20 and NCI-CTC were used in secondary evaluation. The incidence and severity of adverse reactions, time to their onset, etc. and the like, were compared between patients treated with Tavocept™ and those given a placebo using the aforementioned methods.

[10] = system: patients with advanced stage (IIIB/IV) non-small cell lung carcinoma (NSCLC), including the adenocarcinoma sub-type; test: U.S. Phase II NSCLC Clinical Trial (dose-dense docetaxel + cisplatin with or without Tavocept); type: in vivo, human
Procedure: Darbepoetin alfa (200 μg; subcutaneous administration) was administered on day one of the chemotherapy cycle and pegfilgrastim (6 mg subcutaneous administration) was administered on day two of the chemotherapy cycle if the patient's hemoglobin levels were ≦11 g/dL. The aforementioned chemotherapy cycle was repeated every two weeks, for up to a total of six cycles.

[11] = FIG. 7, Tavocept arm (5 in the placebo arm)
[12] = adenocarcinoma patients in the Tavocept arm
[13] = FIG. 13, Tavocept arm versus non-Tavocept arm
[14] = FIG. 14, adenocarcinoma patients, Tavocept vs non-Tavocept arm
[15] = FIG. 15, Tavocept arm versus non-Tavocept arm

## O=S(=O)([O-])CCSSCCS(=O)(=O)[O-].[Na+].[Na+] [Tavocept™, disodium 2,2′-dithio-bis-ethane sulfonate]
[1]
  NADPH Oxidation, GR + GSH: 2.9 ± 1.6 nmol/min/mL
[2]; Disulfide 0.5 mM, n = 6
  NADPH Oxidation, GR + GRX + GSH: 15.3 ± 1.0 nmol/min/mL
[2]; in the presence of reduced glutathione and glutathione reductase, result in words
  substrate-like activity with glutaredoxin / alternative substrate inhibitor for the coupled GRX/GSH/GR system: exhibits substrate-like activity
[3]
  whole cell mediated disulfide reduction: declined
[4]
  interference with paclitaxel induced apoptosis: does not interfere
[5]
  interference with paclitaxel and platinum induced cytotoxicity: did not interfere
[6]
  interference with paclitaxel and platinum regimens: did not interfere
[7]
  cell death: increase in cell death
[8]
  cell death: increase in cell death
[9]; FIG. 5, paclitaxel/Tavocept/cisplatin regimen vs paclitaxel/saline placebo/cisplatin regimen, NSCLC patients
  reduction in severe (Grade D or E) peripheral neuropathy (PNQ, Primary Endpoint): ~50%
[9]; [11]
  patients with Grade 3 (severe) decrease in hematocrit levels: 1 patients
  patients with Grade 3 (severe) decrease in red blood cell levels: 1 patients
[9]; FIG. 7, Tavocept arm (8 in the placebo arm)
  patients with Grade 3 (severe) decrease in hemoglobin: 2 patients
[9]; FIG. 8, Tavocept arm (28.6% in the placebo arm)
  response rate as measured by the IRC: 33.3%
[9]; FIG. 8, Tavocept arm (33.0% in the placebo arm)
  Response Rate, as measured by physicians (Doctor): 41.9%
[9]; FIG. 9, NSCLC patients incl. adenocarcinoma, paclitaxel/Tavocept/cisplatin vs paclitaxel/saline placebo/cisplatin
  increase in median survival time: up to 40 days
[9]; FIG. 10, female NSCLC patients, paclitaxel/Tavocept/cisplatin vs paclitaxel/saline placebo/cisplatin
  survival period, female patient population: longer survival period
[9]; FIG. 11, adenocarcinoma sub-type, paclitaxel/Tavocept/cisplatin vs paclitaxel/saline placebo/cisplatin
  increase in median survival time, adenocarcinoma patients: up to 138 days
[9]; FIG. 11, adenocarcinoma sub-type, paclitaxel/Tavocept/cisplatin vs paclitaxel/saline placebo/cisplatin, listed as Tavocept
  increase in median survival time, adenocarcinoma patients: approximately 138 days
[9]; Tavocept and chemotherapy vs chemotherapy and placebo, result in words
  chemotherapy-induced vomiting/emesis and kidney damage: medically-important reductions
[9]; [12]
  increase in median survival time, adenocarcinoma patients: ~4.5 months
[10]; FIG. 12, NSCLC incl. adenocarcinoma, Tavocept arm (10.74 months non-Tavocept arm), 95% confidence limit
  median patient survival (time to death): 11.66 months
[10]; FIG. 12, NSCLC incl. adenocarcinoma, Tavocept vs non-Tavocept arm
  hazard ratio, survival: 0.750
[10]; FIG. 12, NSCLC, Tavocept arm versus non-Tavocept arm
  increase in patient survival: 0.92 month
[10]; FIG. 13, Tavocept arm (9.25% non-Tavocept arm), 95% confidence interval
  patient progression-free survival (PFS): 18.7%
[10]; FIG. 13, Tavocept arm (39.5% non-Tavocept arm), 95% confidence interval
  overall patient one-year survival (OS) rate: 50.7%
[10]; [13]
  increase in overall patient one-year survival (OS) rates: 11.2%
  increase in patient progression-free survival (PFS): 9.5%
[10]; FIG. 14, adenocarcinoma patients, Tavocept arm (9.10 months non-Tavocept arm), 95% confidence limit
  median patient survival (time to death), adenocarcinoma: 15.64 months
[10]; FIG. 14, adenocarcinoma patients, Tavocept arm versus non-Tavocept arm
  increase in patient survival, adenocarcinoma: 6.54 months
[10]; FIG. 14, adenocarcinoma patients, Tavocept arm versus non-Tavocept arm, listed as Tavocept
  increase in patient survival, adenocarcinoma: ~6.5 months
[10]; [14]
  hazard ratio, survival, adenocarcinoma: 0.601
  reduction in the patient mortality rate, adenocarcinoma: 40%
[10]; [15]
  reduction in dehydration (Grade 3 and Grade 4 treatment-related adverse events): 50%
  reduction in hypomagnesaemia (Grade 3 and Grade 4 treatment-related adverse events): 100%
  reduction in nausea (Grade 3 and Grade 4 treatment-related adverse events): 38.5%
  reduction in vomiting (Grade 3 and Grade 4 treatment-related adverse events): 71.5%
[10]; [12]
  increase in median survival time, adenocarcinoma patients: approximately 198 days
